According to patent US20240327374A1, “LENALIDOMIDE PROCESS” (priority 2023, published 2024):

How the values were obtained:
Assay type in all cases: physicochemical
[1] = Six months stability of crystalline Form SRA: moisture content by KF method
Excerpt: (§1) Inventors of the present application performed six months stability for the novel crystalline Form SRA according to the following temperature and relative humidity conditions: […]

[2] = Six months stability of crystalline Form SRA: assay / purity by HPLC
Excerpt: as §1

[3] = Six months stability of crystalline Form SRA: comparative XRPD pattern (polymorphic stability); details: after 6 months under 25° C.±2/65±5% RH and 40° C.±2/75±5% RH
Excerpt: as §1

With `Nc1cccc2c1CN(C1CCC(=O)NC1=O)C2=O` (stereo not shown) [Form SRA, 3-(7-amino-3-oxo-1H-isoindol-2-yl) piperidine-2,6-dione] as the compound, how does the “Moisture Content (by KF method) Not more than 0.5% w/w” value ([1]; A = 25° C.±2/65±5% RH, 1M) read?
Its value is 0.22 % w/w.

And the “Moisture Content (by KF method) Not more than 0.5% w/w” value ([1]; A = 25° C.±2/65±5% RH, 2M)?
Its value is 0.22 % w/w.

What about the “Moisture Content (by KF method) Not more than 0.5% w/w” value ([1]; A = 25° C.±2/65±5% RH, 3M) of the same compound?
The value was 0.23 % w/w.

And the “Moisture Content (by KF method) Not more than 0.5% w/w” value ([1]; A = 25° C.±2/65±5% RH, 6M)?
The value was 0.23 % w/w.

And the “Moisture Content (by KF method) Not more than 0.5% w/w” value ([1]; A = 25° C.±2/65±5% RH, Initial)?
Its value is 0.23 % w/w.

And the “Moisture Content (by KF method) Not more than 0.5% w/w” value ([1]; B = 40° C.±2/75±5% RH, 1M)?
Its value is 0.21 % w/w.

And the “Moisture Content (by KF method) Not more than 0.5% w/w” value ([1]; B = 40° C.±2/75±5% RH, 2M)?
Its value is 0.22 % w/w.

And the “Moisture Content (by KF method) Not more than 0.5% w/w” value ([1]; B = 40° C.±2/75±5% RH, 3M)?
The value was 0.22 % w/w.

What about the “Moisture Content (by KF method) Not more than 0.5% w/w” value ([1]; B = 40° C.±2/75±5% RH, 6M) of the same compound?
Its value is 0.22 % w/w.

What about the “Moisture Content (by KF method) Not more than 0.5% w/w” value ([1]; B = 40° C.±2/75±5% RH, Initial) of the same compound?
Its value is 0.23 % w/w.

And the “Assay (by HPLC; on anhydrous basis) Between 98.0 to 102.0% w/w” value (from here on “Assay … to 102.0% w/w”) ([2]; A = 25° C.±2/65±5% RH, 1M)?
The value was 99.50 % w/w.

What about the “Assay … to 102.0% w/w” value ([2]; A = 25° C.±2/65±5% RH, 2M) of the same compound?
Its value is 99.41 % w/w.

And the “Assay … to 102.0% w/w” value ([2]; A = 25° C.±2/65±5% RH, 3M)?
Its value is 99.55 % w/w.

What about the “Assay … to 102.0% w/w” value ([2]; A = 25° C.±2/65±5% RH, 6M) of the same compound?
The value was 99.47 % w/w.

And the “Assay … to 102.0% w/w” value ([2]; A = 25° C.±2/65±5% RH, Initial)?
Its value is 100.38 % w/w.

And the “Assay … to 102.0% w/w” value ([2]; B = 40° C.±2/75±5% RH, 1M)?
The value was 99.77 % w/w.

What about the “Assay … to 102.0% w/w” value ([2]; B = 40° C.±2/75±5% RH, 2M) of the same compound?
Its value is 99.64 % w/w.

And the “Assay … to 102.0% w/w” value ([2]; B = 40° C.±2/75±5% RH, 3M)?
The value was 100.02 % w/w.

And the “Assay … to 102.0% w/w” value ([2]; B = 40° C.±2/75±5% RH, 6M)?
Its value is 99.47 % w/w.

And the “Assay … to 102.0% w/w” value ([2]; B = 40° C.±2/75±5% RH, Initial)?
The value was 100.38 % w/w.

What about the “HPLC purity retained in the stability study” value ([2]; six months stability study) of the same compound?
The value was “exceeding 99.9 % w/w by HPLC”.

And the “Crystalline form by comparative XRPD, initial stage vs after stability” value [3]?
The value was “crystalline form remains unchanged”.
